Test results published in patent US6392049B1, “Process for preparing 2,4-dihydroxypyridine and 2,4-dihydroxy-3-nitropyridine” (Aventis Pharmaceuticals Inc., priority 1996, dated 2002).
pIC50: −log10 of the molar value. Like-named read-outs stand apart in the source and are kept apart here.

What was measured:
swine coronary arteries = assay: In vitro vasorelaxation in isolated swine coronary arteries; type: cell-based; conditions: for IC50: Sus scrofa, read-out: Vasorelaxation in Swine Coronary Artery/IC50 (μM); for pIC50: 50% reduction in tension of rings contracted with 3 μM PGF2a, read-out: Vasorelaxation in Swine Coronary Artery/IC50
Method: Swine coronary arteries are obtained from a local slaughter house, dissected carefully and cleaned of fat, blood and adhering tissue. Rings approximately 2-3 mm wide are cut and transferred to water-jacketed tissue baths (10 mL) filled with warm (37° C.), oxygenated (O2/CO2:95%/5%) Krebs-Henseleit buffer and mounted on L-shaped hooks between stainless steel rods and a force transducer. […] PGF2a, before being exposed to 3 μM PGF2a.

A2 receptor = molecular target: T1, A2 receptor (Rattus norvegicus, UniProt P30543); assay: A2 adenosine receptor binding, displacement of 3H-CGS 21680, rat brain striatum membranes; conditions: 3H-CGS 21680 displacement, rat brain striatum membranes, 25° C., 90 minutes; read-out: Adenosine Receptor Binding Activity/IC50 (nM) A2
T1 construct: using membranes from rat brain striatum; from tissue; host or cells: rat brain striatum membranes
Method: Non-specific binding is assessed in the presence of 20 μm 2-chloroadenosine.
(§1) The assays are run in glass test tubes in duplicate at 25° C. Once the membranes are added, the tubes are vortexed and incubated at 25° C. for 60 minutes (A1 assay) or 90 minutes (A2 assay) on a rotary shaker. The assay tubes are vortexed halfway through the incubation and again near the end. The assays are terminated by rapid filtration through 2.4 cm GF/B filters using a Brandel Cell Harvestor. The test tubes are washed three times with cold 50 mM tris-HCl (pH 7.7 or 7.4), with filtration being completed within 15 seconds. The damp filter circles are placed in glass scintillation vials filled with 10 ml of Aquasol II (New England Nuclear). The vials are allowed to shake overnight on a rotary shaker and are placed into a liquid scintillation analyzer for two minute counts. IC50 values for receptor binding, i.e. the concentration at which a compound of Formula I displaced the radiolabeled standard, are obtained using a curve-fitting computer program (RS/1, Bolt, Beranek and Newman, Boston, Mass.).

A1 receptor = molecular target: T2, A1 receptor (Rattus norvegicus, UniProt P25099); assay: A1 adenosine receptor binding, displacement of 3H-CHA, whole rat brain membranes; conditions: 3H-CHA displacement, 25° C., 60 minutes
T2 construct: using a membrane preparation of whole rat brain; from tissue; host or cells: whole rat brain membranes
T2 sequence (P25099 1-326): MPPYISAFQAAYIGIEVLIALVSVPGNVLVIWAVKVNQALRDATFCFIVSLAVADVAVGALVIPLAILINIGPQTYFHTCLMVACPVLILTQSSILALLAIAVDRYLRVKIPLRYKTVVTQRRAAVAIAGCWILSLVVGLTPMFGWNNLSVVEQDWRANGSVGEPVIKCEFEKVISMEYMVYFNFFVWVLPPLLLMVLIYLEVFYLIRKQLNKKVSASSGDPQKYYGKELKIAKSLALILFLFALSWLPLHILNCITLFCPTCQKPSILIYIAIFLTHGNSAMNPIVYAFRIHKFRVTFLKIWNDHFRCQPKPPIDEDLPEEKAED
Method: Non-specific binding is assessed in the presence of 1 mM theophylline.
as §1

T1 sequence (P30543 whole entry): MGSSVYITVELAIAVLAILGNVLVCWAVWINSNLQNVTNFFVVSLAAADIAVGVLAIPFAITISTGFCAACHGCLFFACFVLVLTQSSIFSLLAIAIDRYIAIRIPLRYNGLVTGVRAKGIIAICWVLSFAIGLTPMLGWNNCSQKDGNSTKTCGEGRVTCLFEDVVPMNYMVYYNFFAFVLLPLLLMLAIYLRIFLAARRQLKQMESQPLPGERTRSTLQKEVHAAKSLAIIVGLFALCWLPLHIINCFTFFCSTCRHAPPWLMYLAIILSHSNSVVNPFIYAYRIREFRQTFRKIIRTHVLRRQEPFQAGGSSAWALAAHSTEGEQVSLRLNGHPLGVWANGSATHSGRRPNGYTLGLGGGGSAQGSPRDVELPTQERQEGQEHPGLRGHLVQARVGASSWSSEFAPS

Compound	IC50 (swine coronary arteries) [µM]	IC50 (A2 receptor) [nM]	IC50 (A1 receptor) [nM]	pIC50 (swine coronary arteries)
CCNC(=O)[C@H]1O[C@@H](n2cnc3c(NC4CC=CCC4c4cccs4)ncnc32)[C@H](O)[C@@H]1O (single isomer, unassigned) [Example 22, N^6-[trans-2-(thiophen-2-yl)-cyclohex-4-en-1-yl]adenosine-5-N-ethyl carboxamide]	0.1	29.5	2.69	
CCNC(=O)C1CC(n2cnc3c(N[C@H](C)Cc4ccc(Cl)s4)ncnc32)C2OC(C)(C)OC12 (single isomer, unassigned; (-)) [6(1)]		> 1000	> 1000	4.72
CCNC(=O)[C@H]1O[C@@H](n2cnc3c(NC4CC=CCC4c4cccs4)ncnc32)[C@H](O)[C@@H]1O (single isomer, unassigned) [Example 5, N6-[trans-2-(thiophen-2-yl)cyclohex-4-en-1-yl]adenosine-5′-N-ethylcarboxamide]	0.068	91	4.26	
CCNC(=O)[C@H]1C[C@@H](n2cnc3c(N[C@H](C)Cc4ccc(Cl)s4)ncnc32)[C@H](OC(=O)OC)[C@@H]1OC(=O)OC [Example 42, (2S)-2a,3a-bis-methoxycarbonyloxy-4β-[N6-[2-(5-chloro-2-thienyl)-(1R)-1-methylethyl]amino-9-adenyl]cyclopentane-1β-N-ethylcarboxamide]	2.44	> 10000	> 1000	
CCNC(=O)[C@H]1C[C@@H](n2cnc3c(N[C@H](CC)Cc4ccc(Cl)s4)ccnc32)[C@H](O)[C@@H]1O [Example 41]		158	14.2	
CCC(Cc1ccc(Cl)s1)Nc1ncnc2c1ncn2[C@@H]1O[C@H](CO)[C@@H](O)[C@H]1O (stereo partly shown) [Example 21, N^6-[1-(5″-chlorothien-2″-yl)-2-butyl]adenosine]		14.8	0.09	
CCC(Cc1sccc1Cl)Nc1ncnc2c1ncn2[C@@H]1O[C@H](CO)[C@@H](O)[C@H]1O (stereo partly shown) [Example 31, N^6-[1-ethyl-2-(3-chlorothien-2-yl)ethyl]adenosine]		8.9	0.03	
OC[C@H]1O[C@@H](n2cnc3c(NCc4nc(-c5ccccc5)cs4)ncnc32)[C@H](O)[C@@H]1O [Example 19]		1000	36	6.12
OC[C@H]1O[C@@H](n2cnc3c(NCCSc4nc5ccccc5s4)ncnc32)[C@H](O)[C@@H]1O [Example 10, N^6-[2-(2′-thiobenzothiazolyl)-ethyl]adenosine]		> 1000	3.8	
C[C@H](Cc1sccc1Cl)Nc1ncnc2c1ncn2[C@@H]1O[C@H](CO)[C@@H](O)[C@H]1O [Example 32, N^6-[1-methyl-2-(3-chlorothien-2-yl)ethyl]adenosine]		45		
CCNC(=O)C1CC(n2cnc3c(NC(C)Cc4cccs4)ncnc32)C(O)C1O (single isomer, unassigned; (-)) [Example 27]	0.043	29.5	5.01	
OC[C@H]1O[C@@H](n2cnc3c(NCCc4nc(-c5ccccc5)cs4)ncnc32)[C@H](O)[C@@H]1O [Example 16, N^6-[2-(4′-phenyl-2′-thiazolyl)-ethyl]adenosine]		> 1000	1.7	
CC(C)(Cc1cccs1)Nc1ncnc2c1ncn2[C@@H]1O[C@H](CO)[C@@H](O)[C@H]1O [Example 17, N^6-[2-(1,1-dimethyl-2′-thiophenyl)ethyl]adenosine]		5250	67.6	4.73
CCNC(=O)C1CC(n2cnc3c(N[C@H](CC)Cc4sccc4Cl)ncnc32)C(O)C1O (single isomer, unassigned; (-)) [Example 34]		23	1.6	7.14
(2S)-2a,3a-dihydroxy-4β-[N6-[2-(5-chloro-2-thienyl)-(1R)-1-methylethyl]amino-9-adenyl]cyclopentane-1β-N-ethylcarboxamide-2,3-carbonate [Example 44]		331	55	6.50
CCNC(=O)C1CC(n2cnc3c(NCCc4ccsc4)ncnc32)C(O)C1O (racemic) [Example 28, (±)-N^6-[1-(thiopen-3-yl)ethan-2-yl]carbocyclic adenosine-5′-N-ethyl carboxamide]		> 1000	417	
CCNC(=O)C1CC(n2cnc3c(NC(CC)Cc4sccc4Cl)ccnc32)C(O)C1O (single isomer, unassigned) [Example 39, [1S-[1a,2b,3b,4a(S*)]]4-[7-[[2-(3-chloro-2-thienyl)-1-ethylethyl]amino]-3H-imidazo[4,5-b]pyridin-3-yl]-N-ethyl-2,3-dihydroxycyclopentane-carboxamide]		46.8	3.98	
Cc1nc(CCNc2ncnc3c2ncn3[C@@H]2O[C@H](CO)[C@@H](O)[C@H]2O)cs1 [Example 14, N^6-[2-(2′-methyl-4′-thiazolyl)-ethyl]adenosine]		> 1000	79.4	
CCNC(=O)[C@H]1C[C@@H](n2cnc3c(N[C@H](C)Cc4ccc(Cl)s4)[n+]([O-])cnc32)[C@H](O)[C@@H]1O [Example 35, (2S)-2a,3a-dihydroxy-4β-[N6-[2-(5-chloro-2-thienyl)-(1R)-1-methylethyl]amino-9-adenyl]cyclopentane-1β-N-ethylcarboxamide-N^1-oxide]	3.3	6350	1090	
CO[C@@H]1[C@H](O)[C@@H](CO)O[C@H]1n1cnc2c(N[C@H](C)Cc3sccc3Cl)ncnc21 [Example 47, N^6-[2-(3-chloro-2-thienyl)-(1R)-1-methylethyl]-2′-O-methyladenosine]	5.7	2820	23	
CC(Cc1nccs1)Nc1ncnc2c1ncn2[C@@H]1O[C@H](CO)[C@@H](O)[C@H]1O (stereo partly shown) [Example 20, N^6-[1-(thiazol-2-yl)prop-2-yl]-adenosine]		158	3.98	
CCNC(=O)[C@H]1C[C@@H](n2cnc3c(N[C@H](C)Cc4ccc(Cl)s4)ncnc32)[C@H](OC(=O)NC)[C@@H]1OC(=O)NC [Example 45]	4.1	> 10000	6350	
CCNC(=O)[C@H]1C[C@@H](n2cnc3c(N[C@H](C)Cc4ccc(Cl)s4)ncnc32)[C@@H]2OC(OCC)O[C@@H]21 (stereo partly drawn) [Example 43, (2S)-2a,3a-dihydroxy-4β-[N6-[2-(5-chloro-2-thienyl)-(1R)-1-methylethyl]amino-9-adenyl]cyclopentane-1β-N-ethylcarboxamide ethoxymethylene acetal]	7.83	> 10000	8430	
CCNC(=O)[C@H]1C[C@@H](n2cnc3c(NC(CC)Cc4sccc4Cl)ccnc32)[C@H](O)[C@@H]1O (stereo partly shown) [Example 37]	0.45	110	16.2	
CCNC(=O)[C@H]1C[C@@H](n2cnc3c(N[C@@H](C)Cc4ccc(Cl)s4)ccnc32)[C@H](O)[C@@H]1O (relative stereo) [Example 36, [1S-[1a,2b,3b,4a(S*)]]-4-[7-[[2-(5-chloro-2-thienyl)-1-methylethyl]amino]-3H-imidazo[4,5-b]pyridin-3-yl]-N-ethyl-2,3-dihydroxycyclopentanecarboxamide]		43.4	8.8	6.31
CCNC(=O)C1CC(n2cnc3c(NCCc4nccs4)ncnc32)C(O)C1O (racemic) [Example 25, (±)-N^6-[2-(2″-thiazolyl)ethyl]-carbocyclic adenosine-5′-N-ethyl carboxamide]	0.64	355	1260	
